Patent publication US4202891A, “15-Oxygenated sterol compounds and the use of such compounds to inhibit the biosynthesis of sterols” (priority 1977, dated 1980)
Like-named read-outs stand apart in the source and are kept apart here.

How the values were obtained:
[1] = system: sterol biosynthesis in L cells; experiment: Inhibition of sterol synthesis from [1-14C]acetate in L cell cultures; format: cell-based; settings: Mus musculus; for inhibition at 0.1 µM: read-out: inhibition of sterol synthesis
Protocol: (§1) The effect of various 15-oxygenated sterols on sterol biosynthesis in L cells and in primary cultures of mouse liver cells was tested essentially under conditions described in detail previously [A. A. Kandutsch and H. W. Chen, J. Biol. Chem., Vol. 248, pp. 8408-8417 (1973) and A. A. Kandutsch and H. W. Chen, J. Biol. Chem., Vol. 249, pp. 6057-6061 (1974`)].
(§2) The primary liver cell cultures were prepared from 16-day-old (C57BL/6J fetuses and grown in chemically defined medium (serum-free) as described in the above cited publications. The L cells, a subline of NCTC clone 929 mouse fibroblasts, were grown in chemically defined medium (serum-free) as described in the publications. These L cells are transformed fibroblasts which are regarded as malignant since they will grow as tumors if injected into the mouse strain from which they were initially obtained.
(§3) The preparation of steroid-containing media, procedures for assays of the conversion of [1-^14 C]acetate into digitonin-precipitable sterols, fatty acids, and CO2 and methods for the measurement of DNA, protein, and HMG-CoA reductase were as described in the published articles. L cell cultures were preincubated with the 15-oxygenated sterols and their derivatives for 4 hours, then [1-^14 C]acetate was added at a concentration of 4 μmoles per ml (4 μCi per ml); or the L cell cultures were incubated for 5 hours with the 15-oxygenated sterols before they were harvested for determination of microsomal HMG-CoA reductase activity.
(§4) The test compounds were tested over a range of at least 4 concentrations and the assay was repeated until the concentration of test compound required to produce 50% inhibition was located on the steeply declining portion of an activity vs. concentration plot. To diminish any possible effects of generalized differences in cellular metabolism, the rates of sterol synthesis from [1-^14 C]acetate were calculated as the ratio of [^14 C]sterols to [^14 C]fatty acids as described in the two cited articles by Kandutsch and Chen.

[2] = system: sterol biosynthesis in primary cultures of mouse liver cells; experiment: Inhibition of sterol synthesis from [1-14C]acetate in primary cultures of liver cells; format: cell-based
Protocol: as §1, §2, §3
Conditions for incubating the 15-oxygenated sterols or their derivatives with liver cell cultures were similar to those described for L cell cultures except that the cultures were incubated with the test compounds for 12 hours before labeled acetate was added or before they were harvested for enzyme assay.
as §4

HMG-CoA reductase = experiment: Reduction of the activity of HMG-CoA reductase in L cell cultures; format: cell-based, mouse; settings: read-out: Concentrations Required for 50% Reduction of the Activity of HMG-CoA Reductase
Protocol: as §2, §3
A number of the 15-oxygenated sterols have also been tested with respect to their effects on the activity and/or levels of the enzyme HMG-CoA reductase (3-hydroxy-3-methylglutaryl coenzyme A reductase) in the L cells and in the liver cells. As noted previously, this enzyme catalyzes the reduction of 3-hydroxy-3-methylglutaryl coenzyme A to yield mevalonic acid, an essential intermediate in the biosynthesis of sterols and of a number of other essential compounds in cells.
Using the technique described by Kandutsch and Chen in the article cited in the previous example, the concentrations of various 15-oxygenated sterols required to reduce the levels of activity of HMG-CoA reductase by 50% was determined in the cells of the L cells in culture and of the primary cultures of liver cells.

serum cholesterol = experiment: Effect on serum cholesterol levels in rats, daily subcutaneous injection (Examples 41, 42); format: in vivo, rat (male, Sprague-Dawley); settings: Example 42; for Serum Cholesterol (Mean ± S.E.M.): 5 mg s.c. once a day in triolein
Protocol: Male rats of the Sprague-Dawley strain were fed Purina rat chow ad libidum. The rats were maintained on a light (7 A.M.-6 P.M.) -dark (6 P.M.-7 A.M.) cycle throughout the study and for a period of at least 4 days prior to the initiation of the study.
3β-Hexadecanoyloxy-5α-cholest-8(14)-en-15-one (5 mg; dissolved in 0.25 ml of triolein), hereafter referred to as the "palmitate ester", or 3β-hemisuccinoyloxy-5α-cholest-8(14)-en-15-one (5 mg; suspended in 0.25 ml of triolein through the use of a tight-fitting all-glass homogenizer), hereafter referred to as the "hemisuccinate ester", were administered subcutaneously once a day at about 12 P.M. to each of eight and six rats, respectively. Control animals (8) received daily injections of triolein (0.25 ml).
Blood samples were taken from the rats periodically and the serum cholesterol concentrations measured, in duplicate, by the method of Abell et al., J. Biol. Chem., Vol. 195, pp. 357-366 ([…]).
Following generally the procedure described in Example 41, 3β-Ethoxy-14α-ethyl-5α-cholest-7-en-15-one (5 mg) in triolein (0.25 ml) was administered subcutaneously once a day to each of eight rats. Control animals (8) received daily injections of triolein (0.25 ml).
Similarly, 5α-cholest-8(14)-en-3β-ol-15-one (2mg) in (0.2 ml) olive oil or 5.0 mg in 0.5 ml of olive oil) was administered subcutaneously once a day to each of a group of rats. The 2 mg dose was administered to 12 rats, while a like number of rats received daily injections of 0.2 ml olive oil. 5 mg doses were administered to each of 6 rats, while 6 control animals received daily injections of 0.5 ml olive oil. The rats used in this study initially weighed between 110 and 190 grams.

[3] = read-out: Concentrations Required for 50% Inhibition of Sterol Synthesis
[4] = read-out: concentration causing 50% inhibition of sterol synthesis

Which results are given for CCO[C@H]1CC[C@@]2(C)[C@@H](CC=C3[C@@H]2CC[C@]2(C)[C@@H]([C@H](C)CCCC(C)C)CC(O)[C@@]32CC)C1 (stereo partly drawn) [3β-Ethoxy-14α-ethyl-5α-cholest-7-en-15-ol]?
IC50 [1, 3]: 0.7 µM; IC50 [2, 3]: 4.3 µM

How did the IC50 [1, 3] turn out when CC[C@]12C3=CC[C@H]4C[C@@H](OC(C)=O)CC[C@]4(C)[C@H]3CC[C@]1(C)[C@@H]([C@H](C)CCCC(C)C)C[C@H]2O [3β-acetoxy-14α-ethyl-5α-cholest-7-en-15β-ol] was run?
The IC50 was 0.03 µM.

And the IC50 (HMG-CoA reductase)?
The IC50 was 0.13 µM.

With CCO[C@H]1CC[C@@]2(C)[C@@H](CC=C3[C@@H]2CC[C@]2(C)[C@@H]([C@H](C)CCCC(C)C)CC(=O)[C@@]32CC)C1 [3β-ethoxy-14α-ethyl-5α-cholest-7-en-15-one] as the compound, how does the “Serum Cholesterol (Mean ± S.E.M.)” value (serum cholesterol; day 0) read?
The value was 89.1 ± 2.2 mg per 100 ml.

And the “Serum Cholesterol (Mean ± S.E.M.)” value (serum cholesterol; day 6)?
Its value is 77.3 ± 2.1 mg per 100 ml.

And the “Serum Cholesterol (Mean ± S.E.M.)” value (serum cholesterol; day 10)?
The value was 80.1 ± 2.3 mg per 100 ml.

And the “Serum Cholesterol (Mean ± S.E.M.)” value (serum cholesterol; day 15)?
Its value is 78.5 ± 3.3 mg per 100 ml.

What about the “Serum Cholesterol (Mean ± S.E.M.)” value (serum cholesterol; day 21) of the same compound?
The value was 73.1 ± 2.3 mg per 100 ml.

And the “Serum Cholesterol (Mean ± S.E.M.)” value (serum cholesterol; day 27)?
The value was 66.8 ± 2.6 mg per 100 ml.

What about the “% Reduction (relative to triolein-treated rats)” value (serum cholesterol; 5 mg s.c. once a day, day 6) of the same compound?
The value was 4.8%.

And the “% Reduction (relative to triolein-treated rats)” value (serum cholesterol; 5 mg s.c. once a day, day 10)?
The value was 3.4%.

And the “% Reduction (relative to triolein-treated rats)” value (serum cholesterol; 5 mg s.c. once a day, day 15)?
Its value is 3.8%.

What about the “% Reduction (relative to triolein-treated rats)” value (serum cholesterol; 5 mg s.c. once a day, day 21) of the same compound?
Its value is 11.5%.

What about the “% Reduction (relative to triolein-treated rats)” value (serum cholesterol; 5 mg s.c. once a day, day 27) of the same compound?
The value was 18.3%.

And the “percentage reduction in serum cholesterol levels, mean value (S.E.M.)” value (serum cholesterol; 5 mg s.c. once a day, day 27 vs. day 0)?
The value was 25.0.

What about the IC50 [1, 3] of the same compound?
The IC50 was over 22 µM.

With CCCCCCCCCCCCCCCC(=O)O[C@H]1CC[C@@]2(C)[C@@H](CC=C3[C@@H]2CC[C@]2(C)[C@@H]([C@H](C)CCCC(C)C)C[C@H](O)[C@@]32CC)C1 [3β-hexadecanoyloxy-14α-ethyl-5α-cholest-7-en-15α-ol] as the compound, how does the IC50 [1, 3] read?
Its IC50 is 7 µM.

Which IC50 [1, 3] does the source give for CCCCCCCCCCCCCCCC(=O)O[C@H]1CC[C@@]2(C)[C@@H](CC=C3[C@@H]2CC[C@]2(C)[C@@H]([C@H](C)CCCC(C)C)C[C@@H](O)[C@@]32CC)C1 [3β-hexadecanoyloxy-14α-ethyl-5α-cholest-7-en-15β-ol] here?
The IC50 was over 15.1 µM.

For CO[C@H]1CC[C@@]2(C)[C@@H](CC=C3[C@@H]2CC[C@]2(C)[C@@H]([C@H](C)CCCC(C)C)CC(=O)[C@@]32C)C1 [3β-methoxy-14α-methyl-5α-cholest-7-en-15-one], which IC50 [1, 3] is on record?
Its IC50 is 20 µM.

For CC(C)CCC[C@@H](C)[C@H]1C[C@H](O)[C@@H]2C3=CC[C@H]4CC(=O)CC[C@]4(C)[C@H]3CC[C@]12C [5α,14β-Cholest-7-en-15α-ol-3-one, 5α,14β-cholest-7-en-15α-ol-3-one], which IC50 [1, 3] is on record?
Its IC50 is 2 µM.

With CC(C)CCC[C@@H](C)[C@H]1C[C@@H](O)[C@@H]2C3=CC[C@H]4CC(=O)CC[C@]4(C)[C@H]3CC[C@]12C [5α,14β-Cholest-7-en-15β-ol-3-one, 5α,14β-cholest-7-en-15β-ol-3-one] as the compound, how does the IC50 [1, 3] read?
The IC50 was 0.25 µM.

With CC(C)CCC[C@@H](C)[C@H]1CC(=O)C2=C3CC[C@H]4C[C@H](O)CC[C@]4(C)[C@H]3CC[C@@]21C [5α-Cholest-8(14)-en-3α-ol-15-one, 5α-cholest-8(14)-en-3α-ol-15-one] as the compound, how does the IC50 ([1]; L cell cultures, read-out: Concentrations Required for 50% Inhibition of Sterol Synthesis) read?
The IC50 was 0.5 µM.

How did the IC50 [1, 3] turn out when CC(C)CCC[C@@H](C)[C@H]1C[C@H](O)C2=C3CC[C@H]4C[C@@H](O)CC[C@]4(C)[C@H]3CC[C@@]21C [5α-Cholest-8(14)-en-3β,15α-diol] was run?
Its IC50 is 3.7 µM.

What about the IC50 [2, 3] of the same compound?
The IC50 was 31 µM.

Which IC50 [1, 3] does the source give for CC[C@@]12C(=O)C[C@H]([C@H](C)CCCC(C)C)[C@@]1(C)CC[C@H]1C2=CC[C@H]2C[C@H](O)CC[C@@]21C [14α-Ethyl-5α-cholest-7-en-3α-ol-15-one, 14α-ethyl-5α-cholest-7-en-3α-ol-15-one] here?
The IC50 was under 0.1 µM.

And the inhibition at 0.1 µM [1]?
Its inhibition at 0.1 µM is about 100%.

For CC[C@]12C3=CC[C@H]4C[C@@H](O)CC[C@]4(C)[C@H]3CC[C@]1(C)[C@@H]([C@H](C)CCCC(C)C)C[C@@H]2O [14α-Ethyl-5α-cholest-7-en-3β,15α-diol, 14α-ethyl-5α-cholest-7-en-3β,15α-diol], which IC50 [1, 4] is on record?
The IC50 was 0.05 µM.

And the IC50 [2, 3]?
The IC50 was 0.06 µM.

What about the IC50 [2, 4] of the same compound?
The IC50 was 0.06 µM.

Which results are given for CC[C@]12C3=CC[C@H]4C[C@@H](O)CC[C@]4(C)[C@H]3CC[C@]1(C)[C@@H]([C@H](C)CCCC(C)C)C[C@H]2O [14α-Ethyl-5α-cholest-7-en-3β,15β-diol, 14α-ethyl-5α-cholest-7-en-3β,15β-diol]?
IC50 [1, 3]: 0.4 µM; IC50 [2, 3]: 0.8 µM

What does the source list for CC[C@]12C3=CC[C@H]4CC(=O)CC[C@]4(C)[C@H]3CC[C@]1(C)[C@@H]([C@H](C)CCCC(C)C)C[C@@H]2O [14α-Ethyl-5α-cholest-7-en-15α-ol-3-one, 14α-ethyl-5α-cholest-7-en-15α-ol-3-one]?
IC50 [1, 3]: < 0.1 µM; inhibition at 0.1 µM [1]: ~100%

For CCCC[C@]12C3=CC[C@H]4C[C@@H](O)CC[C@]4(C)[C@H]3CC[C@]1(C)[C@@H]([C@H](C)CCCC(C)C)C[C@@H]2O [14α-n-Butyl-5α-cholest-7-en-3β,15α-diol, 14α-n-butyl-5α-cholest-7-en-3β,15α-diol], which IC50 [1, 3] is on record?
The IC50 was 5 µM.

CCCC[C@]12C3=CC[C@H]4C[C@@H](O)CC[C@]4(C)[C@H]3CC[C@]1(C)[C@@H]([C@H](C)CCCC(C)C)C[C@H]2O [14α-n-Butyl-5α-cholest-7-en-3β,15β-diol, 14α-n-butyl-5α-cholest-7-en-3β,15β-diol] was tested. Which IC50 [1, 3] did it give?
The IC50 was 4.4 µM.

Which IC50 [1, 3] does the source give for CCCC[C@@]12C(=O)C[C@H]([C@H](C)CCCC(C)C)[C@@]1(C)CC[C@H]1C2=CC[C@H]2C[C@@H](O)CC[C@@]21C [14α-n-Butyl-5α-cholest-7-en-3β-ol-15-one, 14α-n-butyl-5α-cholest-7-en-3β-ol-15-one] here?
Its IC50 is 8.3 µM.

How did the IC50 [1, 3] turn out when CCC[C@]12C3=CC[C@H]4C[C@@H](O)CC[C@]4(C)[C@H]3CC[C@]1(C)[C@@H]([C@H](C)CCCC(C)C)C[C@@H]2O [14α-n-Propyl-5α-cholest-7-en-3β,15α-diol, 14α-n-propyl-5α-cholest-7-en-3β,15α-diol] was run?
Its IC50 is 1.1 µM.

How did the IC50 [1, 3] turn out when CCC[C@]12C3=CC[C@H]4C[C@@H](O)CC[C@]4(C)[C@H]3CC[C@]1(C)[C@@H]([C@H](C)CCCC(C)C)C[C@H]2O [14α-n-Propyl-5α-cholest-7-en-3β,15β-diol, 14α-n-propyl-5α-cholest-7-en-3β,15β-diol] was run?
Its IC50 is 4.1 µM.

With CCC[C@@]12C(=O)C[C@H]([C@H](C)CCCC(C)C)[C@@]1(C)CC[C@H]1C2=CC[C@H]2C[C@@H](O)CC[C@@]21C [14α-n-propyl-5α-cholest-7-en-3β-ol-15-one] as the compound, how does the IC50 [1, 3] read?
Its IC50 is 3.4 µM.
